This is an account of results in patent US11780830B2, “Triazolone derivatives or salts thereof and pharmaceutical compositions comprising the same” (YUHAN CORPORATION, priority 2018, dated 2023).

What all share (type): biochemical
One assay has as its target T1, recombinant human VAP-1 (Homo sapiens, UniProt Q16853).
T1 construct: purchased R&D systems
T1 sequence (Q16853 1-763): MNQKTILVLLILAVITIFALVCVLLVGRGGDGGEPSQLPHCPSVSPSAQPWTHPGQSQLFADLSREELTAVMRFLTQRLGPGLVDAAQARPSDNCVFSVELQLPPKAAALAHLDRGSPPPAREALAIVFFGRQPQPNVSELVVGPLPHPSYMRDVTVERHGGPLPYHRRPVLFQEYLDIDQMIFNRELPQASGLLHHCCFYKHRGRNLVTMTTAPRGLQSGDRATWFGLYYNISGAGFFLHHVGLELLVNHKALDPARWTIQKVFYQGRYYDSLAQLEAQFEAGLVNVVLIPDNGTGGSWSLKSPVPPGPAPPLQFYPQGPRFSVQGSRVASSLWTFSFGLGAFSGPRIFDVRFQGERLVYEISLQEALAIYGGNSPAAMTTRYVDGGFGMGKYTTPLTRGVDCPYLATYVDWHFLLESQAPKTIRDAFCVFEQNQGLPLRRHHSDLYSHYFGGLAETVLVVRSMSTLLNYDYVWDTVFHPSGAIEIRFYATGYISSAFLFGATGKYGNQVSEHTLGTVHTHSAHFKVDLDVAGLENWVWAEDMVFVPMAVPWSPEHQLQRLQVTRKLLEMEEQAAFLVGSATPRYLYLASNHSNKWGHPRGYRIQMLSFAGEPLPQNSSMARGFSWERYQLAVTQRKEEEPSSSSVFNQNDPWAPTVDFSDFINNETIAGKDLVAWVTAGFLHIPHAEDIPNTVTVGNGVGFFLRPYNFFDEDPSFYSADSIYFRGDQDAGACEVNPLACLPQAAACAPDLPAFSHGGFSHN
As to the kind of experiment: Activity on recombinant human VAP-1, HRP-coupled Amplex Red hydrogen peroxide assay. The conditions noted are these: substrate 1 mM benzylamine; compound incubated with enzyme at 37° C. for 30 minutes; pH 7.4; read-out: Inhibitory Activity (IC50, nM) human VAP-1. The method in brief:
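Compounds were preincubated with purified enzyme in 50 mM sodium phosphate pH 7.4 at 37 °C for 30 min, then 200 uM Amplex Red, 1 mM benzylamine and 1 U/mL HRP were added. Resorufin fluorescence (ex 544/em 590 nm) was followed over 1-2 h; IC50 came from 4-parameter fits of signal-rate inhibition.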

In assay [1] the target is T2, recombinant human MAO-A (monoamine oxidase-A) (Homo sapiens, UniProt P21397).
T2 construct: purchased Sigma-Aldrich
T2 sequence (P21397 1-527): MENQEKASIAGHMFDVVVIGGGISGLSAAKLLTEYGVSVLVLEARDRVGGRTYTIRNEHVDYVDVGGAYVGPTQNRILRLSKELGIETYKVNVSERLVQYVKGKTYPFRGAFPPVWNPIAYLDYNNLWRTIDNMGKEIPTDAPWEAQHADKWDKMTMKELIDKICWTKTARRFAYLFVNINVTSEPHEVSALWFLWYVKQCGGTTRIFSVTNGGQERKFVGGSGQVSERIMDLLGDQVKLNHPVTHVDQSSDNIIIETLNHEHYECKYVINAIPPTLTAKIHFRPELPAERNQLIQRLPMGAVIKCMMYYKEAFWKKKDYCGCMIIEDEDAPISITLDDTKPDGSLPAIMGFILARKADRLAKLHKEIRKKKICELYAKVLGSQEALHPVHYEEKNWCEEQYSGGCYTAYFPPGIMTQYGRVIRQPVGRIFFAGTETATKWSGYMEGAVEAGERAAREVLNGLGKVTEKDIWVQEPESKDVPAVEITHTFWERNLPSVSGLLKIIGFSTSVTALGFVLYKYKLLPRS
As to the kind of experiment: Activity on recombinant human MAO-A, method similar to the VAP-1 assay. The settings on record: substrate 0.5 mM tyramine; read-out: Inhibitory Activity (IC50, nM) MAO-A. The method in brief:
(§1)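 8-point, 1:3 dose-response, four-parameter logistic IC50 from reduction in fluorescence rate versus DMSO control. HRP/Amplex Red detection of H2O2 (ex 544, em 590 nm) after 30 min, 37 °C compound–enzyme preincubation in pH 7.4 phosphate buffer. MAO-A substrate: 0.5 mM tyramine; MAO-B: 1 mM benzylamine.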

Assay [2] addresses T3, recombinant human MAO-B (monoamine oxidase-B) (Homo sapiens, UniProt P27338).
T3 construct: purchased Sigma-Aldrich
T3 sequence (P27338 1-520): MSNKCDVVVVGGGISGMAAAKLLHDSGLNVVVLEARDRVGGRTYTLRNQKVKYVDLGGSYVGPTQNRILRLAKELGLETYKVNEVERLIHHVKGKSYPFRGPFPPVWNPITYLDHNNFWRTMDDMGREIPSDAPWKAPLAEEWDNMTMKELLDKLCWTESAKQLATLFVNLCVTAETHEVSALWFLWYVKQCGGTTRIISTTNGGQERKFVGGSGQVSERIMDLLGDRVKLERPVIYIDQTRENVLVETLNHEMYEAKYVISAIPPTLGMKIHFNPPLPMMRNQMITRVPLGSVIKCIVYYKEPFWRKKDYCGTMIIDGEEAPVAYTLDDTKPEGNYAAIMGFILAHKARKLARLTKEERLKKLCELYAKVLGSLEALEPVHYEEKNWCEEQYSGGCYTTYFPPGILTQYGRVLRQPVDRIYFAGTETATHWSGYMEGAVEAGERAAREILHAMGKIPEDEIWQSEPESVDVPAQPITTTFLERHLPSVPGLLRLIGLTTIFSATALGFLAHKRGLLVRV
Briefly: Activity on recombinant human MAO-B, method similar to the VAP-1 assay. The conditions noted are these: substrate 1 mM benzylamine; read-out: Inhibitory Activity (IC50, nM) MAO-B. An outline of the steps:
as §1

Assay [3] addresses T4, recombinant human DAO (diamine oxidase) (Homo sapiens, UniProt P19801).
T4 construct: purchased R&D systems
T4 sequence (P19801 20-751): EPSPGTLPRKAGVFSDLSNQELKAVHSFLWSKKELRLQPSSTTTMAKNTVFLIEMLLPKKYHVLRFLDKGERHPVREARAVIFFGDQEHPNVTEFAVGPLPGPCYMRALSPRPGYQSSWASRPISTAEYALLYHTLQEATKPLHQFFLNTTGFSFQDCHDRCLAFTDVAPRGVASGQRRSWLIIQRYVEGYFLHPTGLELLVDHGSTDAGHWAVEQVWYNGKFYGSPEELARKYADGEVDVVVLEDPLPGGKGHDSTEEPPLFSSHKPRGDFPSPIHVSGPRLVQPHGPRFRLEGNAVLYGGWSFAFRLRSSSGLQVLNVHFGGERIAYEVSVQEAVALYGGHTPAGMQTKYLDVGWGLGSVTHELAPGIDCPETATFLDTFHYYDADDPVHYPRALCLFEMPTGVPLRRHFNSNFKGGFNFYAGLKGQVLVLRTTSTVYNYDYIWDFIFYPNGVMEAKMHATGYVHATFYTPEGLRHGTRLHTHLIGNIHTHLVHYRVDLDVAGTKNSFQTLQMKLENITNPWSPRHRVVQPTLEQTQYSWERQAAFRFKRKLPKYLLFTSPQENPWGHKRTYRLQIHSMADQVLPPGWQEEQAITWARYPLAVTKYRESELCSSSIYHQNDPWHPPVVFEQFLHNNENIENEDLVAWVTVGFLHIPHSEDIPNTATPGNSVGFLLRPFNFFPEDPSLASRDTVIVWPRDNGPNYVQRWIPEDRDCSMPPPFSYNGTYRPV
As to the kind of experiment: Activity on recombinant human DAO, method similar to the VAP-1 assay. The conditions noted are these: substrate 1 mM putrescine; read-out: Inhibitory Activity (IC50, nM) DAO. An outline of the steps: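 Inhibition of recombinant human diamine oxidase (DAO, R&D systems) was assessed by the same approach as the VAP-1 assay, using 1 mM putrescine as substrate. Hydrogen peroxide formed was detected through an HRP-coupled Amplex Red reaction yielding fluorescent resorufin, read at 544 nm excitation and 590 nm emission. IC50 values came from four-parameter logistic fitting in GraphPad Prism.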

SMILES strings stand for the structures. Counter-ions that a name gives are not always drawn. Bounds are passed on as bounds.

As a reminder, the IC50 is the point on the concentration scale where inhibition reaches its midpoint. `NC/C(=C\F)Cn1ncn(Cc2ccc(-c3csc(CO)c3)s2)c1=O` [Example 164, 2-[(2E)-2-(aminomethyl)-3-fluoroprop-2-en-1-yl]-4-{[5′-(hydroxymethyl)-2,3′-bithiophen-5-yl]methyl}-2,4-dihydro-3H-1,2,4-triazol-3-one]: the IC50 was 2.5 nM on recombinant human VAP-1, greater than 100000 nM in assay [1], 170 nM in assay [2] and 6800 nM in assay [3].
Turning to `CS(=O)(=O)c1ccc(-c2csc(Cn3cnn(C/C(=C/F)CN)c3=O)c2)cc1` [Example 201], the half-maximal inhibitory concentration (IC50) at recombinant human VAP-1 was 1.5 nM; in assay [1], greater than 100000 nM; in assay [2], 3000 nM; in assay [3], 450 nM.
The matching figures for `NC/C(=C\F)Cn1ncn(Cc2ccc(C#Cc3ccc4c(c3)CCC(=O)N4)s2)c1=O` [Example 133, 6-[2-[5-[[1-[(E)-2-(aminomethyl)-3-fluoro-allyl]-5-oxo-1,2,4-triazol-4-yl]methyl]-2-thienyl]ethynyl]-3,4-dihydro-1H-quinolin-2-one hydrochloride]: 0.2 nM, 49000 nM, 180 nM and 530 nM.
As for `CN1C(=O)COc2cc(-c3ccc(Cn4cnn(C/C(=C/F)CN)c4=O)s3)ccc21` [Example 86, 7-[5-[[1-[(E)-2-(aminomethyl)-3-fluoro-allyl]-5-oxo-1,2,4-triazol-4-yl]methyl]-2-thienyl]-4-methyl-1,4-benzoxazin-3-one hydrochloride], the IC50 was 0.2 nM on recombinant human VAP-1, greater than 100000 nM in assay [1], 2500 nM in assay [2] and 380 nM in assay [3].
The matching figures for `CN(C)c1ccc(/C=C/c2ccc(Cn3cnn(C/C(=C/F)CN)c3=O)s2)cc1` [Example 120, 2-[(E)-2-(aminomethyl)-3-fluoro-allyl]-4-[[5-[2-[4-(dimethylamino)phenyl]vinyl]-2-thienyl]methyl]-1,2,4-triazol-3-one]: 6.2 nM, 16000 nM, 340 nM and 1100 nM.
`NC/C(=C\F)Cn1ncn(Cc2ccc(-c3cn[nH]c3)s2)c1=O` [Example 152, 2-[(2E)-2-(aminomethyl)-3-fluoroprop-2-en-1-yl]-4-{[5-(1H-pyrazol-4-yl)thiophen-2-yl]methyl}-2,4-dihydro-3H-1,2,4-triazol-3-one]: the IC50 on recombinant human VAP-1 was 4.9 nM; in assay [1], 13000 nM; in assay [2], 3500 nM; in assay [3], 4400 nM.
The matching figures for `CC(C)n1cc(-c2ccc(Cn3cnn(C/C(=C/F)CN)c3=O)s2)ccc1=O` [Example 143, 5-[5-({1-[(2E)-2-(aminomethyl)-3-fluoroprop-2-en-1-yl]-5-oxo-1,5-dihydro-4H-1,2,4-triazol-4-yl}methyl)thiophen-2-yl]-1-(propan-2-yl)pyridin-2(1H)-one]: 1.4 nM, greater than 100000 nM, 2600 nM and 1700 nM.
The matching figures for `Cc1cc(-c2ccc(Cn3cnn(C/C(=C/F)CN)c3=O)s2)cc2c1NC(=O)CC2` [Example 77, 6-[5-(1-[(2E)-2-(aminomethyl)-3-fluoroprop-2-en-1-yl]-5-oxo-1,5-dihydro-4H-1,2,4-triazol-4-ylmethyl)thiophen-2-yl]-8-methyl-3,4-dihydroquinolin-2(1H)-one hydrochloride]: 0.2 nM, greater than 100000 nM, 1300 nM and 460 nM.
For `NC/C(=C\F)Cn1ncn(Cc2ccc(-c3ccc4ocnc4c3)s2)c1=O` [Example 62, 2-[(2E)-2-(aminomethyl)-3-fluoroprop-2-en-1-yl]-4-[5-(1,3-benzooxazol-5-yl)thiophen-2-yl]methyl-2,4-dihydro-3H-1,2,4-triazol-3-one hydrochloride] the same measures were 3.7 nM, 2100 nM, 310 nM and 530 nM.
For the compound `NC/C(=C\F)Cn1ncn(Cc2ccc(-c3ccc(N4CCNCC4)cc3)s2)c1=O` [Example 22, 2-[(2E)-2-(aminomethyl)-3-fluoroprop-2-en-1-yl]-4-(5-[4-(piperazin-1-yl)phenyl]thiophen-2-ylmethyl)-2,4-dihydro-3H-1,2,4-triazol-3-one hydrochloride], the half-inhibitory concentration (IC50) at recombinant human VAP-1 is 6.4 nM; in assay [1], greater than 100000 nM; in assay [2] it was 2600 nM; in assay [3] it was 2400 nM.
In the case of `CN(C)c1cc(-c2ccc(Cn3cnn(C/C(=C/F)CN)c3=O)s2)ccc1F` [Example 6, 2-[(2E)-2-(aminomethyl)-3-fluoroprop-2-en-1-yl]-4-(5-[3-(dimethylamino)-4-fluorophenyl]thiophen-2-ylmethyl)-2,4-dihydro-3H-1,2,4-triazol-3-one hydrochloride], the IC50 on recombinant human VAP-1 is 3.4 nM; in assay [1] it was greater than 100000 nM; in assay [2] it was 70 nM; in assay [3] it was 2900 nM.
